Data published in patent US11827628B2, “Compositions and methods for inhibition of the JAK pathway” (Rigel Pharmaceuticals, Inc., priority 2005, dated 2023).

Experiments:
[1] = system: IL-4 stimulated expression of CD23 in human Ramos B cells (JAK-1 and JAK-3); experiment: Assay for Ramos B-Cell Line Stimulated with IL-4 (CD23 upregulation, FACS); assay type: cell-based; conditions: Homo sapiens, Ramos, Ramos B cells stimulated with IL-4, CD23 expression by FACS; read-out: IC50, Example 41
In short: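 Compound effect on IL-4-driven JAK1/JAK3 signalling is gauged as CD23 surface expression, measured by FACS after 20-24 h of stimulation with IL-4 at 50 units/mL final. A 1 h compound pre-treatment at 37 °C precedes stimulation, and IC50 is derived from the results.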

[2] = system: up-regulation of ICAM-1 (CD54) by IFNγ in U937 human monocytic cells; experiment: U937 IFNγ ICAM1 FACS Assay; assay type: cell-based; conditions: Homo sapiens, U-937, U937 cells stimulated with IFNγ, ICAM-1 expression by FACS; read-out: IC50, Example 44
In short: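 U937 cells in 10% FCS RPMI were preincubated 30 min at 37 °C with an 8-point, 3-fold compound dilution series in duplicate, then stimulated with IFNγ for 18–24 h. Surface ICAM-1 was stained with APC anti-ICAM-1 and read by flow cytometry as geometric mean on live-gated cells. EC50 was derived.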

N#CCc1c[nH]c2cc(Nc3nc(Nc4cccc(S(N)(=O)=O)c4)ncc3F)ccc12 [IX-12, N2-(3-Aminosulfonylphenyl)-N4-(3-cyanomethyl-1H-indol-6-yl)-5-fluoro-2,4-pyrimidinediamine]
IC50 [1]: 0.0973 µM
IC50 [2]: 3.48 µM

N#CCc1c[nH]c2ccc(Nc3nc(Nc4cccc(S(N)(=O)=O)c4)ncc3F)cc12 [IX-13, N2-(3-Aminosulfonylphenyl)-N4-(3-cyanomethyl-1H-indol-5-yl)-5-fluoro-2,4-pyrimidinediamine]
IC50 [1]: 0.138 µM
IC50 [2]: 1.85 µM

Cc1ccc(Nc2ncc(F)c(Nc3ccc4[nH]cc(CC#N)c4c3)n2)cc1S(N)(=O)=O [IX-14, N2-(3-Aminosulfonyl-4-methylphenyl)-N4-(3-cyanomethyl-1H-indol-5-yl)-5-fluoro-2,4-pyrimidinediamine]
IC50 [1]: 0.0574 µM
IC50 [2]: 1.09 µM

N#CCc1c[nH]c2c(Nc3nc(Nc4cccc(S(N)(=O)=O)c4)ncc3F)cccc12 [IX-15, N2-(3-Aminosulfonylphenyl)-N4-(3-cyanomethyl-1H-indol-7-yl)-5-fluoro-2,4-pyrimidinediamine]
IC50 [1]: 0.217 µM
IC50 [2]: 5.36 µM

Cc1ccc(Nc2ncc(F)c(Nc3cccc4c(CC#N)c[nH]c34)n2)cc1S(N)(=O)=O [IX-16, N2-(3-Aminosulfonyl-4-methylphenyl)-N4-(3-cyanomethyl-1H-indol-7-yl)-5-fluoro-2,4-pyrimidinediamine]
IC50 [1]: 0.21 µM
IC50 [2]: 2.51 µM

NS(=O)(=O)c1cccc(Nc2ncc(F)c(Nc3ccc(C(=O)N4CCSCC4)cc3)n2)c1 [IX-34, N2-(3-Aminosulfonylphenyl)-5-fluoro-N4-[4-(4-thiomorpholinyl)carbonylphenyl]-2,4-pyrimidinediamine]
IC50 [1]: 0.582 µM
IC50 [2]: 3.95 µM

Cc1ccc(Nc2ncc(F)c(Nc3ccc(C(=O)N4CCSCC4)cc3)n2)cc1S(N)(=O)=O [IX-35, N2-(3-Aminosulfonyl-4-methylphenyl)-5-fluoro-N4-[4-(4-thiomorpholinyl)carbonylphenyl]-2,4-pyrimidinediamine]
IC50 [1]: 0.455 µM
IC50 [2]: 2.1 µM

COc1cc(Nc2nc(Nc3ccc(C)c(S(N)(=O)=O)c3)ncc2F)ccc1Cl [VI-5, N2-(3-Aminosulfonyl-4-methylphenyl)-N4-(4-chloro-3-methoxyphenyl)-5-fluoro-2,4-pyrimidinediamine]
IC50 [1]: 0.0405 µM
IC50 [2]: 1.39 µM

Cc1ccc(Nc2ncc(F)c(Nc3ccc(Cl)c(Cl)c3)n2)cc1S(N)(=O)=O [VI-6, N2-(3-Aminosulfonyl-4-methylphenyl)-N4-(3,4-dichlorophenyl)-5-fluoro-2,4-pyrimidinediamine]
IC50 [1]: 0.0375 µM
IC50 [2]: 7.7 µM

COc1cc(Nc2nc(Nc3ccc(Cl)c(S(N)(=O)=O)c3)ncc2F)ccc1Cl [VI-11, N2-(3-Aminosulfonyl-4-chlorophenyl)-N4-(4-chloro-3-methoxyphenyl)-5-fluoro-2,4-pyrimidinediamine]
IC50 [1]: 0.259 µM
IC50 [2]: 7.14 µM

COc1ccc(Nc2nc(Nc3cc(Cl)c(C)c(S(N)(=O)=O)c3)ncc2F)cc1Cl [VI-13, N2-(3-Aminosulfonyl-5-chloro-4-methylphenyl)-N4-(3-chloro-4-methoxyphenyl)-5-fluoro-2,4-pyrimidinediamine]
IC50 [1]: 0.0965 µM
IC50 [2]: 1.39 µM

COc1ccc(Nc2nc(Nc3cc(C)c(F)c(S(N)(=O)=O)c3)ncc2F)cc1Cl [VI-15, N2-(3-Aminosulfonyl-4-fluoro-5-methylphenyl)-N4-(3-chloro-4-methoxyphenyl)-5-fluoro-2,4-pyrimidinediamine]
IC50 [1]: 0.045 µM
IC50 [2]: 0.767 µM

COc1ccc(Nc2nc(Nc3cc(C)c(Cl)c(S(N)(=O)=O)c3)ncc2F)cc1Cl [VI-17, N2-(3-Aminosulfonyl-4-chloro-5-methylphenyl)-N4-(3-chloro-4-methoxyphenyl)-5-fluoro-2,4-pyrimidinediamine]
IC50 [1]: 0.0434 µM
IC50 [2]: 0.454 µM

Cc1cc(Nc2ncc(F)c(Nc3ccc(OC(F)(F)F)c(Cl)c3)n2)cc(S(N)(=O)=O)c1Cl [VI-18, N2-(3-Aminosulfonyl-4-chloro-5-methylphenyl)-N4-(3-chloro-4-trifluoromethoxyphenyl)-5-fluoro-2,4-pyrimidinediamine]
IC50 [1]: 0.257 µM
IC50 [2]: 6.06 µM

COc1ccc(Nc2nc(Nc3cccc(S(N)(=O)=O)c3)ncc2Br)cc1Cl [VI-26, N2-(3-aminosulfonylphenyl)-5-bromo-N4-(3-chloro-4-methoxyphenyl)-2,4-pyrimidinediamine]
IC50 [1]: 0.0444 µM
IC50 [2]: 0.257 µM

CNC(=O)OCc1cccc(Nc2nc(Nc3ccc(C)c(S(N)(=O)=O)c3)ncc2F)c1 [VI-49, N2-(3-Aminosulfonyl-4-methylphenyl)-5-fluoro-N4-[3-(methylaminocarbonyloxymethyl)phenyl]-2,4-pyrimidinediamine]
IC50 [1]: 0.268 µM
IC50 [2]: 2.1 µM

Cc1ccc(Nc2ncc(F)c(Nc3ccc(C(F)(F)F)cc3)n2)cc1S(N)(=O)=O [VI-50, N2-(3-Aminosulfonyl-4-methylphenyl)-5-fluoro-N4-(4-trifluoromethylphenyl)-2,4-pyrimidinediamine]
IC50 [1]: 0.217 µM
IC50 [2]: 1.88 µM

NS(=O)(=O)c1cccc(Nc2ncc(F)c(Nc3ccc(C(F)(F)F)cc3)n2)c1 [VI-51, N2-(3-Aminosulfonylphenyl)-5-fluoro-N4-(4-trifluoromethylphenyl)-2,4-pyrimidinediamine]
IC50 [1]: 0.152 µM
IC50 [2]: 2.13 µM

Cc1ccc(Nc2ncc(F)c(Nc3ccc(CO)cc3)n2)cc1S(N)(=O)=O [VI-52, N2-(3-Aminosulfonyl-4-methylphenyl)-5-fluoro-N4-(4-hydroxymethylphenyl)-2,4-pyrimidinediamine]
IC50 [1]: 0.168 µM
IC50 [2]: 1.74 µM

C#CCOc1ccc(Nc2nc(Nc3ccc(C)c(S(N)(=O)=O)c3)ncc2F)cc1 [VI-53, N2-(3-Aminosulfonyl-4-methylphenyl)-5-fluoro-N4-[4-(prop-2-ynyloxy)phenyl]-2,4-pyrimidinediamine]
IC50 [1]: 0.0563 µM
IC50 [2]: 0.565 µM

C=Cc1ccc(Nc2nc(Nc3ccc(C)c(S(N)(=O)=O)c3)ncc2F)cc1 [VI-54, N2-(3-Aminosulfonyl-4-methylphenyl)-5-fluoro-N4-(4-vinylphenyl)-2,4-pyrimidinediamine]
IC50 [1]: 0.147 µM
IC50 [2]: 1.62 µM

C#CCOc1ccc(Nc2nc(Nc3ccc(Cl)c(S(N)(=O)=O)c3)ncc2F)cc1 [VI-55, N2-(3-Aminosulfonyl-4-chlorophenyl)-5-fluoro-N4-[4-(prop-2-ynyloxy)phenyl]-2,4-pyrimidinediamine]
IC50 [1]: 0.122 µM
IC50 [2]: 1.37 µM

C#CCOc1ccc(Nc2nc(Nc3ccc(C)c(S(N)(=O)=O)c3)ncc2F)cc1F [VI-60, N2-(3-Aminosulfonyl-4-methylphenyl)-5-fluoro-N4-[3-fluoro-4-(prop-2-ynyloxy)phenyl]-2,4-pyrimidinediamine]
IC50 [1]: 0.0869 µM
IC50 [2]: 0.41 µM

CC#CCOc1ccc(Nc2nc(Nc3ccc(C)c(S(N)(=O)=O)c3)ncc2F)cc1 [VI-61, N2-(3-Aminosulfonyl-4-methylphenyl)-N4-[4-(but-2-ynyloxy)phenyl]-5-fluoro-2,4-pyrimidinediamine]
IC50 [1]: 0.099 µM
IC50 [2]: 0.367 µM

C#CCOc1ccc(Nc2nc(Nc3ccc(C(C)C)c(S(N)(=O)=O)c3)ncc2F)cc1 [VI-63, N2-[3-Aminosulfonyl-4-(2-propyl)phenyl]-5-fluoro-N4-[4-(prop-2-ynyloxy)phenyl]-2,4-pyrimidinediamine]
IC50 [1]: 0.16 µM
IC50 [2]: 1.74 µM
